For experiment [1], the system named is C57BL/6 mice. Put plainly: Survival of mice at a lethal dose (10 Gy whole body irradiation) after intraperitoneal medicament. In kind it is in vivo, mouse. The note with it: for influence on the survival time of mice after receiving irradiation: i.p. half an hour before 10 Gy whole body irradiation. From the text: 1.2.2 Experiment for Verifying the Survival Rate of Mice at a Lethal Dose
Mice were subjected to 10 Gy whole body irradiation with an X-ray biological irradiator in Department of Medicine having a dose rate of 1.5 Gy/min; and before irradiation, mice were intraperitoneally injected the medicament screened out via an in vitro experiment, and then continuously raised in a temporary storage room of the animal center after irradiation.
4 to 6 week-age C57BL/6 mice were selected as experimental subjects, and divided into control groups and experimental groups, and subjected to 10 Gy whole body irradiation with a dose rate of 1.5 Gy/min; mice in the experimental subjects were respectively intraperitoneally injected the medicaments screened half an hour before irradiation, and the survival time was recorded after irradiation. Among the medicaments, water-soluble Don-H, Pra-C and DL-Pan are dissolved by normal saline, and others were dissolved by 5 g/100 mL DMSO+edible oil. The medicament was prepared into a stock solution having a corresponding concentration according to the volume that 20 g mice were intraperitoneally injected 100 μL medicament.

Experiment [2] deals with crypt stem cells Lgr5+. Put plainly: In vitro medicament screening experiment on crypt stem cells Lgr5+ of mice (GFP fluorescence after 10 Gy irradiation). In kind it is cell-based. The note with it: Mus musculus, light or radiation study, 240 h, 10 μM medicament, GFP fluorescence 10 d after irradiation, read-out: increment of the Lgr5+ stem cells compared with IR groups. From the text:
1.2.1 In Vitro Medicament Screening Experiment on Crypt Stem Cells Lgr5^+ of Mice
1) Lgr5-GFP mice were sacrificed by cervical dislocation, and enterocoelia was opened and the whole small intestine was taken out, and then the small intestine was put to a pre-cooled HBSS buffer solution to remove mesentery and adipose tissues as much as possible, and dissected longitudinally to wash out contents of the small intestine.
2) Villi and contents inside the intestinal cavity were scraped by a glass slide, and then the remaining intestinal cavity was washed for once to twice.
3) The whole small intestine was quickly cut into 5 mm intestinal segments.
4) The intestinal segments were transferred to a 50 mL centrifugal tube, and 25 mL HBSS and 250 μL penicillin/streptomycin solution were added for incubation for 10 min at room temperature, and then the centrifugal tube was slightly inverted to mix evenly for 2-3 times.
5) Supernatant was absorbed, and 10 mL new HBSS was added to wash the intestinal segments for 2-3 times till the final intestinal segments were cleaned thoroughly, then a 70 μm filter sieve was used for filtering to retain the remaining intestinal segments.
6) The intestinal segments were transferred to a 50 mL centrifugal tube, and added to a 10 mL pre-blended digestive solution for incubation for 5 min at room temperature.
7) The centrifugal tube was shaken violently or swirled for several seconds, and then a 70 μm filter sieve was used for filtering.
8) The intestinal segments were transferred to a new 50 mL centrifugal tube, and a 10 mL digestive solution was added for incubation on ice for 30 min, and then the centrifugal tube was shaken violently or swirled for several seconds, and then a 70 μm filter sieve was used for filtering. A black 96-well plate was put on an incubator for preheating during the incubation on ice.
9) The intestinal segments were transferred to a new 50 mL centrifugal tube, and 10 mL HBSS was added, then the centrifugal tube was shaken violently or swirled for several seconds, and a 70 μm filter sieve was used for filtering to retain filtrate.
10) […] for 10 min at 4° C.
11) Supernatant was removed, and crypt cells were precipitated and resuspended by a crypt cell culture solution, and then cell counting was performed microscopically.
12) Cells were diluted by a ratio of the crypt cell culture solution to matrigel=1:1 (v/v), so as to ensure that per 10 μL of mixed liquor contained about 100 crypt cells.
13) The preheated black 96-well plate was taken out, and 10 μL mixed liquor was added to the center of each well, and then the well plate was put to an incubator for 10 min at 37° C.
14) After the matrigel was solidified, each medicament in Bioactive Compound Library (790 types) was diluted by a medium to a final concentration of 10 μM, and then 100 μL was added to per well.
15) The 96-well plate was put on a multi-mode microplate reader to read fluorescence intensity under the conditions of excitation wavelength at 485 nm and emission wavelength at 528 nm, and to record the values on the same day.
16) Crypt cells were irradiated with 10 Gy radiation, and the fluorescence intensity for consecutive 10 d after irradiation was recorded; afterwards, the background fluorescence intensity of a blank control was removed, and a fluorescence intensity curve was drawn; and the test results were shown in FIGS. 1-4.
Crypt stem cells Lgr5^+ separated from Lgr5-GFP mice in vivo carried GFP fluorescence, and the change of the mean fluorescence intensity (MFI) represented the proliferation of crypt stem cells Lgr5*. […]

Each structure is given as a SMILES string.

For `CCCOc1ccn2c(C(C)=O)cc(-c3ccccc3S(C)(=O)=O)c2c1` [GSK2801], in experiment [1] (dose not stated), the “influence on the survival time of mice after receiving irradiation” value (“influence on the survival time of mice” for short) is listed as “no statistical significance”. Moreover, in experiment [2], the fold induction at 10 µM was determined as 14.7.

`CN1CCCCC1CCN1c2ccccc2Sc2ccc([S+](C)[O-])cc21` (stereo not drawn) [Mesoridazine Besylate]: the “influence on the survival time of mice” value in experiment [1] (dose not stated) is on record as “no statistical significance”. In addition, the fold induction at 10 µM in experiment [2] was determined as 4.2.

As for `N#C[C@@H]1C[C@@H]2C[C@@H]2N1C(=O)[C@@H](N)C12CC3CC(CC(O)(C3)C1)C2` [Saxagliptin hydrate], in experiment [1] (dose not stated), the “influence on the survival time of mice” value is given as “no statistical significance”. Also, in experiment [2], the fold induction at 10 µM was determined as 15.9.

`CC(C)(CO)C(O)C(=O)NCCCO` (racemic) [DL-Panthenol]: in experiment [1] (dose not stated), the “influence on the survival time of mice” value is listed as “no statistical significance”. In experiment [2], the fold induction at 10 µM amounted to 3.5.

With `C[n+]1ccccc1/C=N/O` [Pralidoxime chloride], the fold induction at 10 µM in experiment [2] came to 4.8.

`CCN(C)C(=O)Oc1cccc([C@H](C)N(C)C)c1` [Rivastigmine]: the “survival of mice after 30 d” value in experiment [1] (1 mg/kg i.p. before 10 Gy whole body irradiation) and in experiment [1] (2 mg/kg i.p. before 10 Gy whole body irradiation) was “still survival mice after 30 d” each time. For the same compound, in experiment [1] (2 mg/kg i.p. before 10 Gy whole body irradiation, after 30 d, P<0.001 vs control group), the survival rate entry was “greater than 40%”. In addition, the “survival rate of the mice” value in experiment [1] (intraperitoneally injected, 10 Gy whole body irradiation, 30 days post irradiation, dose not stated) is given as “greater than 40%”. Also, the fold induction at 10 µM in experiment [2] was determined as 14.2.

Regarding `C[C@H](CCC(=O)O)[C@H]1CC[C@H]2[C@@H]3C(=O)C[C@@H]4CC(=O)CC[C@]4(C)[C@H]3CC(=O)[C@]12C` [Dehydrocholic acid], the “survival time of the mice” value in experiment [1] (10 mg/kg i.p. half an hour before 10 Gy whole body irradiation), in experiment [1] (20 mg/kg i.p. half an hour before 10 Gy whole body irradiation), in experiment [1] (60 mg/kg i.p. half an hour before 10 Gy whole body irradiation), in experiment [1] (80 mg/kg i.p. half an hour before 10 Gy whole body irradiation) and in experiment [1] (100 mg/kg i.p. half an hour before 10 Gy whole body irradiation) was “did not improve the survival time” in each case. Besides, the “extension of the death time of the mice” value in experiment [1] (40 mg/kg i.p. half an hour before 10 Gy whole body irradiation, P<0.01) was 2 days. Besides, the fold induction at 10 µM in experiment [2] was 3.4.
